Laboratory results: US20250074943A1, “DLL3 BINDING PEPTIDES AND USES THEREOF” (AMGEN INC., priority 2021, published 2025)
pKd: −log10 of the molar value. Where two headings read alike, the source gives them in different places. Bridge positions count the residues as written; N and C are the ends. Peptide text beside a SMILES is read from it.

Biological target: T1, recombinant DLL3 ectodomain (rhDLL3-Fc) (Homo sapiens, UniProt Q9NYJ7)
T1 construct: The recombinant DLL3 ectodomain (rhDLL3-Fc) was biotinylated; Fc
T1 sequence (Q9NYJ7 27-492 limits assumed): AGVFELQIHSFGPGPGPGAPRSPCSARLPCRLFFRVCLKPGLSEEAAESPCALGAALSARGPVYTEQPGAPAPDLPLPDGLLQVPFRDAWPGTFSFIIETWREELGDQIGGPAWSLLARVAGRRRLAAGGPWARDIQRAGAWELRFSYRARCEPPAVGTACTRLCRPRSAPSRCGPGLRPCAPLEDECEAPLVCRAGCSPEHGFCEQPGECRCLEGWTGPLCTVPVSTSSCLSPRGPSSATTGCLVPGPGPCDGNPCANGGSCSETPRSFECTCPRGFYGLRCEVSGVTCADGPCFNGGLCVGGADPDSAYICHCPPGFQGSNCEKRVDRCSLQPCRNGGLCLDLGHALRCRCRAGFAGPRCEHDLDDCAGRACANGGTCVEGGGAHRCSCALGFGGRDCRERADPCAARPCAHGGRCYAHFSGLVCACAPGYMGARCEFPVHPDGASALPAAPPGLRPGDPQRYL
Assay: Binding kinetic assay using Bio-layer interferometry (BLI)
Conditions: for binding mode to DLL3: peptides at 20, 4 and 0.8 μM, fit to 1:1 Langmuir binding model; for affinity: wider dose-response 10×KD to 0.1×KD
Protocol: Binding kinetic assays were performed using Bio-layer interferometry (BLI) technology. The recombinant DLL3 ectodomain (rhDLL3-Fc) was biotinylated using EZ-Link Sulfo-NHS-LC-LC-Biotin Kit according to the manufacturer's protocol (Pierce by Thermo Fisher Scientific). The recombinant protein was incubated with an excess of NHS-LC-LC Biotin ester, in a molar ratio of 1:3 (protein: biotin), at 25° C. for 90 min. The un-reacted biotin ester was removed by subsequent buffer exchange on 0.5 ml Zeba spin desalting columns 7K MWCO (Pierce by Thermo Fisher Scientific).

[1] = Table 4, ± values from three independent experiments, read-out: RT (residence time) (converted)
[2] = range over the seven peptides, read-out: residence time
[3] = Table 4, ± values from three independent experiments

Row | SMILES | residence time [1] [min] | binding mode to DLL3 | residence time [2] [min] | affinity | pKd (Table 4, global fitting 1:1 Langmuir, koff vs kon ratio, ± values from three independent experiments) | RT (residence time) [3] [s]
1 | CC(C)[C@H](NC(=O)[C@@H](NC(=O)[C@H](CCC(=O)O)NC(=O)[C@H](C)N)[C@@H](C)O)C(=O)N[C@@H](CCC(=O)O)C(=O)N[C@@H](Cc1ccccc1)C(=O)N[C@@H](Cc1ccc(O)cc1)C(=O)NCC(=O)N[C@H]1CSSC[C@@H](C(=O)N[C@H](C(=O)N[C@@H](Cc2c[nH]c3ccccc23)C(N)=O)[C@@H](C)O)NC(=O)[C@H]([C@@H](C)O)NC(=O)[C@H](Cc2ccc(O)cc2)NC(=O)[C@H](CCC(=O)O)NC(=O)[C@H](Cc2ccc(O)cc2)NC(=O)[C@H](C)NC(=O)[C@H](CC(=O)O)NC(=O)CNC(=O)[C@H]([C@@H](C)O)NC1=O [PepSP1147] (H-AETVEFYGCTGDAYEYTCTW-NH2; disulfide 9-18; N-terminus assumed) | 1.09 | dose-response saturable binding | 1 to 3 | double-digit nM range |  | 
2 | CC(C)[C@@H]1NC(=O)CNC(=O)[C@H](CCC(=O)O)NC(=O)[C@H]([C@@H](C)O)NC(=O)[C@H](Cc2c[nH]c3ccccc23)NC(=O)[C@H](Cc2ccc(O)cc2)NC(=O)[C@@H](NC(=O)[C@@H](NC(=O)[C@H](Cc2c[nH]c3ccccc23)NC(=O)[C@H](Cc2ccccc2)NC(=O)[C@H](CCC(=O)O)NC(=O)[C@@H](NC(=O)[C@@H](NC(=O)[C@H](CCC(=O)O)NC(=O)[C@H](C)N)[C@@H](C)O)C(C)C)[C@@H](C)O)CSSC[C@@H](C(=O)N[C@@H](CCCNC(=N)N)C(=O)N[C@@H](Cc2c[nH]c3ccccc23)C(N)=O)NC(=O)CNC(=O)[C@H](CO)NC1=O [PepSP1151] (H-AETVEFWTCYWTEGVSGCRW-NH2; disulfide 9-18) | 2.78 | dose-response saturable binding |  |  | 6.90 | 
3 | CC(C)[C@@H]1NC(=O)[C@H]([C@@H](C)O)NC(=O)[C@H](CCC(=O)O)NC(=O)[C@H](CCC(=O)O)NC(=O)[C@H](Cc2ccc(O)cc2)NC(=O)[C@H](Cc2c[nH]c3ccccc23)NC(=O)[C@H](CC(=O)O)NC(=O)[C@@H](NC(=O)[C@H](CCCNC(=N)N)NC(=O)[C@H](Cc2c[nH]c3ccccc23)NC(=O)[C@H](Cc2ccc(O)cc2)NC(=O)[C@H](CCC(=O)O)NC(=O)[C@@H](NC(=O)[C@@H](NC(=O)[C@H](CCC(=O)O)NC(=O)[C@H](C)N)[C@@H](C)O)C(C)C)CSSC[C@@H](C(=O)NCC(=O)N[C@H](C(N)=O)[C@@H](C)O)NC(=O)[C@H](C)NC1=O [PepSP1155] (H-AETVEYWRCDWYEETVACGT-NH2; disulfide 9-18) | 2.95 | dose-response saturable binding |  |  |  | 
4 | CC(C)[C@H](NC(=O)[C@@H](NC(=O)[C@H](CCC(=O)O)NC(=O)[C@H](C)N)[C@@H](C)O)C(=O)N[C@@H](CCC(=O)O)C(=O)N[C@@H](Cc1ccccc1)C(=O)N[C@@H](Cc1c[nH]c2ccccc12)C(=O)N[C@@H](CO)C(=O)N[C@H]1CSSC[C@@H](C(=O)NCC(=O)N[C@H](C(N)=O)[C@@H](C)O)NC(=O)[C@H](CO)NC(=O)[C@H](C(C)C)NC(=O)[C@H]([C@@H](C)O)NC(=O)[C@H](Cc2c[nH]c3ccccc23)NC(=O)[C@H](Cc2ccc(O)cc2)NC(=O)[C@H](CO)NC(=O)[C@H](Cc2ccc(O)cc2)NC(=O)[C@H](Cc2c[nH]cn2)NC1=O [PepSP1157] (H-AETVEFWSCHYSYWTVSCGT-NH2; disulfide 9-18; N-terminus assumed) | 1.48 | dose-response saturable binding |  |  |  | 
5 | CSCC[C@@H]1NC(=O)[C@H](CO)NC(=O)[C@@H](NC(=O)CNC(=O)[C@H](Cc2ccc(O)cc2)NC(=O)[C@H](Cc2ccccc2)NC(=O)[C@H](CCC(=O)O)NC(=O)[C@@H](NC(=O)[C@@H](NC(=O)[C@H](CCC(=O)O)NC(=O)[C@H](C)N)[C@@H](C)O)C(C)C)CSSC[C@@H](C(=O)N[C@@H](C)C(=O)N[C@@H](Cc2c[nH]c3ccccc23)C(N)=O)NC(=O)[C@H]([C@@H](C)O)NC(=O)[C@H](C(C)C)NC(=O)CNC(=O)[C@H](CCCNC(=N)N)NC(=O)[C@H](Cc2c[nH]c3ccccc23)NC(=O)[C@H](CC(=O)O)NC1=O [PepSP1158] (H-AETVEFYGCSMDWRGVTCAW-NH2; disulfide 9-18) | 0.517 | dose-response saturable binding |  |  |  | 
6 | CC(C)C[C@@H]1NC(=O)[C@@H](NC(=O)[C@H](Cc2ccc(O)cc2)NC(=O)[C@H](CC(=O)O)NC(=O)[C@H](Cc2ccccc2)NC(=O)[C@H](CCC(=O)O)NC(=O)[C@@H](NC(=O)[C@@H](NC(=O)[C@H](CCC(=O)O)NC(=O)[C@H](C)N)[C@@H](C)O)C(C)C)CSSC[C@@H](C(=O)N[C@@H](CCC(N)=O)C(=O)N[C@@H](CC(N)=O)C(N)=O)NC(=O)CNC(=O)[C@H](Cc2c[nH]c3ccccc23)NC(=O)[C@H](C)NC(=O)[C@H](CC(=O)O)NC(=O)[C@@H]2CCCN2C(=O)[C@H](C)NC(=O)[C@H](Cc2c[nH]c3ccccc23)NC1=O [PepSP1159] (H-AETVEFDYCLWAPDAWGCQN-NH2; disulfide 9-18; N-terminus assumed) | 0.1 | dose-response saturable binding |  |  |  | 
7 | CC(C)[C@H](NC(=O)[C@@H]1CSSC[C@H](NC(=O)CNC(=O)[C@H](CCCNC(=N)N)NC(=O)[C@H](Cc2ccccc2)NC(=O)[C@H](CCC(=O)O)NC(=O)[C@@H](NC(=O)[C@@H](NC(=O)[C@H](CCC(=O)O)NC(=O)[C@H](C)N)[C@@H](C)O)C(C)C)C(=O)N[C@@H]([C@@H](C)O)C(=O)NCC(=O)N[C@@H](CC(N)=O)C(=O)N[C@@H](C(C)C)C(=O)N[C@@H](Cc2ccc(O)cc2)C(=O)N[C@@H](CC(=O)O)C(=O)N[C@@H](Cc2c[nH]c3ccccc23)C(=O)N[C@@H]([C@@H](C)O)C(=O)N1)C(=O)N[C@@H](Cc1c[nH]c2ccccc12)C(N)=O [PepSP1160] (H-AETVEFRGCTGNVYDWTCVW-NH2; disulfide 9-18) | 0.783 | dose-response saturable binding |  |  |  | 
8 | CC(C)[C@H](NC(=O)[C@@H](NC(=O)[C@H](CCC(=O)O)NC(=O)[C@H](C)N)[C@@H](C)O)C(=O)N[C@@H](CCC(=O)O)C(=O)N[C@@H](Cc1ccccc1)C(=O)N[C@@H](Cc1c[nH]c2ccccc12)C(=O)N[C@@H](CC(=O)O)C(=O)N[C@H]1CSSC[C@@H](C(=O)N[C@H](C(=O)N[C@@H](Cc2c[nH]c3ccccc23)C(N)=O)[C@@H](C)O)NC(=O)[C@H]([C@@H](C)O)NC(=O)[C@H](Cc2c[nH]c3ccccc23)NC(=O)[C@H](CC(=O)O)NC(=O)[C@H](CC(=O)O)NC(=O)[C@H]([C@@H](C)O)NC(=O)[C@H](CC(N)=O)NC(=O)CNC(=O)[C@H](Cc2c[nH]c3ccccc23)NC1=O [PepSP1161] (H-AETVEFWDCWGNTDDWTCTW-NH2; disulfide 9-18; N-terminus assumed) | 1.46 | dose-response saturable binding | 1 to 3 | double-digit nM range |  | 87.8 ± 6
9 | CC(C)[C@H](NC(=O)[C@@H](NC(=O)[C@H](CCC(=O)O)NC(=O)[C@H](C)N)[C@@H](C)O)C(=O)N[C@@H](CCC(=O)O)C(=O)N[C@@H](Cc1ccccc1)C(=O)N[C@@H](Cc1c[nH]c2ccccc12)C(=O)N[C@H](C(=O)N[C@H]1CSSC[C@@H](C(=O)N[C@@H](CO)C(=O)N[C@@H](Cc2c[nH]c3ccccc23)C(N)=O)NC(=O)[C@H]([C@@H](C)O)NC(=O)[C@H](Cc2c[nH]c3ccccc23)NC(=O)[C@H](CCC(=O)O)NC(=O)[C@H](CC(=O)O)NC(=O)[C@H](C)NC(=O)[C@H](CC(N)=O)NC(=O)CNC(=O)[C@H](Cc2c[nH]cn2)NC1=O)[C@@H](C)O [PepSP1162] (H-AETVEFWTCHGNADEWTCSW-NH2; disulfide 9-18) | 0.85 | dose-response saturable binding |  |  |  | 
10 | CC(C)C[C@H](NC(=O)[C@H](Cc1ccccc1)NC(=O)[C@H](CCC(=O)O)NC(=O)[C@@H](NC(=O)[C@@H](NC(=O)[C@H](CCC(=O)O)NC(=O)[C@H](C)N)[C@@H](C)O)C(C)C)C(=O)NCC(=O)N[C@H]1CSSC[C@@H](C(=O)N[C@H](C(=O)N[C@@H](Cc2c[nH]c3ccccc23)C(N)=O)C(C)C)NC(=O)[C@H]([C@@H](C)O)NC(=O)[C@H](Cc2c[nH]c3ccccc23)NC(=O)[C@H](CCC(=O)O)NC(=O)[C@H](CO)NC(=O)[C@H](CC(N)=O)NC(=O)[C@H](CC(=O)O)NC(=O)CNC(=O)[C@H](Cc2c[nH]cn2)NC1=O [PepSP1163] (H-AETVEFLGCHGDNSEWTCVW-NH2; disulfide 9-18) | 2.78 | dose-response saturable binding | 1 to 3 | double-digit nM range |  | 166.8 ± 19.5
